The values that follow come from patent US5593970A, “Heterocyclic anthracycline analogs” (priority 1994, dated 1997).

This series deals with DMS 273. In words: NCI sulforhodamine B assay. The format is cell-based, human.

As to `COC(=O)C1CC2=C(C(=O)c3c(cc4ccccc4c3O)C2=O)C(O[C@H]2C[C@H](NC(=O)C(F)(F)F)[C@H](O)[C@H](C)O2)O1` (mixture of isomers) [BCH-242, (1'S,1R,3S) and (1'S, 1S,3R)-Methyl[11-hydroxy-1-2',3',6'-trideoxy-3-trifluroacetamido-L-lyxohexopyranose)-5,12-dioxo-3,4,5,12-tetrahydroanthraceno[2,3-c]pyran-3-yl]formate], the “Log10 LC50” value (DMS 273, 2880 min) is given as -5.31 log molar. Besides, the CC50 (Homo sapiens, DMS-273, 48 h, read-out: Log10 LC50, DMS 273 (converted)) is 9.77 µM.
